Source: ChEMBL document CHEMBL5380850, “Discovery of the First Raptor (Regulatory-Associated Protein of mTOR) Inhibitor as a New Type of Antiadipogenic Agent” (J Med Chem, 2023)
Active and inactive are the calls of the source. The rule behind the calls is not given here.

Assays:
[1] = biological target: Serine/threonine-protein kinase mTOR (Mus musculus) (UniProt Q9JLN9); test: Inhibition of mTOR signalling in mouse 3T3-L1 cells assessed as upregulation of ATG3 expression level at 0.1 to 10 uM incubated for 24 hrs by Western blot analysis; type: cell-based; settings: dose 0.1-10 µM
[2] = Cytotoxicity against mouse 3T3-L1 cells assessed as reduction in cell viability incubated for 24 hrs by MTT assay; type: toxicity, cell-based
mTORC1 (Mus musculus) [3] = biological target: mTORC1 (Mus musculus) (UniProt Q9JLN9); test: Inhibition of mTORC1 formation in mouse 3T3-L1 cells assessed as increase in 4E-BP1 expression level at 10 uM incubated for 24 hrs by Western blot analysis; type: cell-based
Mus musculus [4] = test: Anti-obesity activity in high fat diet-induced obese C57BL/6J mouse assessed as reduction in visceral fat content by measuring epididymis white adipose tissue weight at 40 mg/kg, ip administered every two days for 46 days; type: functional, organism-based; settings: time 46.0 day
[5] = biological target: Serine/threonine-protein kinase mTOR (Mus musculus) (UniProt Q9JLN9); test: Inhibition of mTOR signalling in mouse 3T3-L1 cells assessed as upregulation of LC3I expression level at 0.1 to 10 uM incubated for 24 hrs by Western blot analysis; type: cell-based; settings: dose 0.1-10 µM
3T3-L1 [6] = test: Anti-adipogenic activity against mouse 3T3-L1 cells assessed as downregulation of FAS mRNA expression level at 0.1 to 1 uM incubated for 6 days by RT-qPCR analysis; type: functional, cell-based; settings: dose 0.1-1 µM, time 6.0 day
[7] = biological target: Serine/threonine-protein kinase mTOR (Mus musculus) (UniProt Q9JLN9); test: Inhibition of mTOR signalling in mouse 3T3-L1 cells assessed as […] of 4E-BP1 phosphorylation at 0.1 to 10 uM incubated for 24 hrs by Western blot analysis; type: cell-based; settings: dose 0.1-10 µM
Mus musculus [8] = test: Anti-obesity activity in high fat diet-induced obese C57BL/6J mouse model assessed as reduction in triglyceride level at 40 mg/kg, ip administered every two days for 46 days; type: functional, organism-based; settings: time 46.0 day
3T3-L1 [9] = test: Anti-adipogenic activity against mouse 3T3-L1 cells assessed as downregulation of FAS protein expression level at 0.1 to 1 uM incubated for 6 days by Western blot analysis; type: functional, cell-based; settings: dose 0.1-1 µM, time 6.0 day
Mus musculus [10] = test: Anti-obesity activity in high fat diet-induced obese C57BL/6J mouse model assessed as increase in […] expression level in inguen white adipose tissue at 40 mg/kg, ip administered every two days for 46 days by immunohistochemical analysis; type: functional, organism-based; settings: time 46.0 day
3T3-L1 [11] = test: Anti-adipogenic activity against mouse 3T3-L1 cells assessed as downregulation of C/EBPdelta protein expression level at 0.1 to 1 uM incubated for 24 hrs by Western blot analysis; type: functional, cell-based; settings: dose 0.1-1 µM
[12] = biological target: Serine/threonine-protein kinase mTOR (Mus musculus) (UniProt Q9JLN9); test: Inhibition of mTOR signalling in mouse 3T3-L1 cells assessed as upregulation of ATG5 expression level at 0.1 to 10 uM incubated for 24 hrs by Western blot analysis; type: cell-based; settings: dose 0.1-10 µM
3T3-L1 [13] = test: Anti-adipogenic activity in SiRNA mediated Raptor knockdown mouse 3T3-L1 cells assessed as ACC expression level at 10 uM by Western blot analysis; type: functional, cell-based
3T3-L1 [14] = test: Anti-adipogenic activity against mouse 3T3-L1 cells at lipogenesis stage assessed as decrease in triglyceride level at 1 uM and measured on 3 to 6 days by Oil Red O staining based spectroscopic analysis; type: functional, cell-based; settings: time 3-6 day
Mus musculus [15] = test: In vivo inhibition of mTOR signalling in high fat diet-induced obese C57BL/6J mouse model assessed as decrease in mTOR phosphorylation at S2481 in inguen white adipose tissue at 40 mg/kg, ip administered every two days for 46 days by Western blot analysis; type: functional, organism-based; settings: time 46.0 day
3T3-L1 [16] = test: Anti-adipogenic activity against mouse 3T3-L1 cells assessed as downregulation of ACC protein expression level at 0.1 to 1 uM incubated for 6 days by Western blot analysis; type: functional, cell-based; settings: dose 0.1-1 µM, time 6.0 day
mTORC1 (Mus musculus) [17] = biological target: mTORC1 (Mus musculus) (UniProt Q9JLN9); test: Inhibition of mTORC1 formation in mouse 3T3-L1 cells assessed as increase in phosphorylated-4E-BP1 expression level at 10 uM incubated for 24 hrs by Western blot analysis; type: cell-based
[18] = biological target: Serine/threonine-protein kinase mTOR (Mus musculus) (UniProt Q9JLN9); test: Inhibition of mTOR signalling in mouse 3T3-L1 cells assessed as downregulation of S6K1 phosphorylation at 0.1 to 10 uM incubated for 24 hrs by Western blot analysis; type: cell-based; settings: dose 0.1-10 µM
3T3-L1 [19] = test: Anti-adipogenic activity against mouse 3T3-L1 cells assessed as downregulation of DGAT2 mRNA expression level at 0.1 to 1 uM incubated for 6 days by RT-qPCR analysis; type: functional, cell-based; settings: dose 0.1-1 µM, time 6.0 day
mTORC1 (Mus musculus) [20] = biological target: mTORC1 (Mus musculus) (UniProt Q9JLN9); test: Inhibition of mTORC1 formation in mouse 3T3-L1 cells assessed as mTOR expression level at 10 uM incubated for 24 hrs by reciprocal co-immunoprecipitation assay; type: cell-based
Mus musculus [21] = test: Anti-obesity activity in high fat diet-induced obese C57BL/6J mouse model assessed as reduction in plasma ALT level at 40 mg/kg, ip administered every two days for 46 days; type: functional, organism-based; settings: time 46.0 day
3T3-L1 [22] = test: Anti-adipogenic activity in siRNA-mediated LC3B knockdown mouse 3T3-L1 cells assessed as decrease in triglyceride level at 10 uM by Oil Red O staining based microscopic analysis; type: functional, cell-based
[23] = biological target: Regulatory-associated protein of mTOR (Homo sapiens, UniProt Q8N122); test: Binding affinity to recombinant human Raptor and measured for 200 sec by SPR analysis
mTORC1 (Mus musculus) [24] = biological target: mTORC1 (Mus musculus) (UniProt Q9JLN9); test: Inhibition of mTORC1 formation in siRNA mediated Raptor knockdown mouse 3T3-L1 cells assessed as decrease in S6K1 expression level at 10 uM incubated for 24 hrs by Western blot analysis; type: cell-based
3T3-L1 [25] = test: Anti-adipogenic activity against mouse 3T3-L1 cells assessed as downregulation of C/EBPbeta protein expression level at 0.1 to 1 uM incubated for 24 hrs by Western blot analysis; type: functional, cell-based; settings: dose 0.1-1 µM
Mus musculus [26] = test: Anti-obesity activity in high fat diet-induced obese C57BL/6J mouse assessed as reduction in visceral fat content by measuring subcutis white adipose tissue weight at 40 mg/kg, ip administered every two days for 46 days; type: functional, organism-based; settings: time 46.0 day
3T3-L1 [27] = test: Anti-adipogenic activity against mouse 3T3-L1 cells assessed as downregulation of PPARgamma protein expression level at 0.1 to 1 uM incubated for 24 hrs by Western blot analysis; type: functional, cell-based; settings: dose 0.1-1 µM
3T3-L1 [28] = test: Anti-adipogenic activity against mouse 3T3-L1 cells assessed as decrease in triglyceride level at 0.01 to 10 uM by Oil Red O staining based microscopic analysis; type: functional, cell-based; settings: dose 0.01-10 µM
mTORC1 (Mus musculus) [29] = biological target: mTORC1 (Mus musculus) (UniProt Q9JLN9); test: Inhibition of mTORC1 formation in mouse 3T3-L1 cells assessed as mLST8 expression level at 10 uM incubated for 24 hrs by reciprocal co-immunoprecipitation assay; type: cell-based
Mus musculus [30] = test: Anti-obesity activity in high fat diet-induced obese C57BL/6J mouse assessed as decrease in size of adipocytes in epididymis white adipose tissue at 40 mg/kg, ip administered every two days for 46 days by H and E staining based microscopy; type: functional, organism-based; settings: time 46.0 day
Mus musculus [31] = test: Anti-obesity activity in high fat diet-induced obese C57BL/6J mouse model assessed as reduction in blood glucose level at 40 mg/kg, ip administered every two days for 5 weeks pretreated with compound and followed by insulin stimulation and measured upto 120 mins by insulin tolerance test; type: functional, organism-based
Mus musculus [32] = test: Anti-obesity activity in high fat diet-induced obese C57BL/6J mouse model assessed as increase in PGC-1alpha expression level in brown adipocyte at 40 mg/kg, ip administered every two days for 46 days by immunohistochemical analysis; type: functional, organism-based; settings: time 46.0 day
Mus musculus [33] = test: Anti-obesity activity in high fat diet-induced obese C57BL/6J mouse model assessed as reduction in plasma AST level at 40 mg/kg, ip administered every two days for 46 days; type: functional, organism-based; settings: time 46.0 day

Chain of Regulatory-associated protein of mTOR (Q8N122 whole entry): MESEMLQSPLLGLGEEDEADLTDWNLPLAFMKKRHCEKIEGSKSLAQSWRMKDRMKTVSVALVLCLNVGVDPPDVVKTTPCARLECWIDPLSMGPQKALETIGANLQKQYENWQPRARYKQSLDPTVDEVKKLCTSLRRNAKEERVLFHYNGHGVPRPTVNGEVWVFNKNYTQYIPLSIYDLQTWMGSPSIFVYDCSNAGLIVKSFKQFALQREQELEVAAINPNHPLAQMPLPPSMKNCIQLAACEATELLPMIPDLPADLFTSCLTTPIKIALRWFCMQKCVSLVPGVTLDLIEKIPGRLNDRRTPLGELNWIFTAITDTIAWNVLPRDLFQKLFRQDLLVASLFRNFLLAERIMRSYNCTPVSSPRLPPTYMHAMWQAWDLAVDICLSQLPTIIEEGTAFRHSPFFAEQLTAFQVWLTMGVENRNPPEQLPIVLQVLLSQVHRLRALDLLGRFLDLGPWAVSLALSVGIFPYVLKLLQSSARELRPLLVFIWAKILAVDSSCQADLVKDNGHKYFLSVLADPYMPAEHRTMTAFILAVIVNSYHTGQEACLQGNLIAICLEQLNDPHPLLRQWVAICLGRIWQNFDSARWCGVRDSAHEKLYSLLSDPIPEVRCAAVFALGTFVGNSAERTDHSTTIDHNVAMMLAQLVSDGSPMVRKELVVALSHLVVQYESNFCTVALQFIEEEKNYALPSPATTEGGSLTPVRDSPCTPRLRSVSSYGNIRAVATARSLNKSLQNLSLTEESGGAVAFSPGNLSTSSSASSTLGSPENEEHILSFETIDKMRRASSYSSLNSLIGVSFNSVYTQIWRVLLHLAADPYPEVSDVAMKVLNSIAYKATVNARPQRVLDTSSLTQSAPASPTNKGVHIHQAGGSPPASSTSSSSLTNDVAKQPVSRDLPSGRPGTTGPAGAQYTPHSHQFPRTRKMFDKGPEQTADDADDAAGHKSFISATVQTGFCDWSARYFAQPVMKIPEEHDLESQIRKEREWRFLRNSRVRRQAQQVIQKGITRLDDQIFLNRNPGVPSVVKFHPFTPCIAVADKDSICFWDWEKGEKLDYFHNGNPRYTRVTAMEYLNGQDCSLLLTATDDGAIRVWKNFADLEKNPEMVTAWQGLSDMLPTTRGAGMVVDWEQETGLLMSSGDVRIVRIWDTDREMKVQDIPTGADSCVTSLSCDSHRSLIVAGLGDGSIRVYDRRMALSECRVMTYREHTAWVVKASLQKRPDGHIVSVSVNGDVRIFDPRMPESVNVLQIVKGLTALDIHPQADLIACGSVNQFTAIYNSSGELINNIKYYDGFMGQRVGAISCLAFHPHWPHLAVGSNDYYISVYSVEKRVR

## C=C(C)[C@@]12OC3(c4ccccc4)O[C@@H]1[C@@H]1[C@H](O)[C@](Cl)(COC(=O)c4ccccc4)[C@@H](O)[C@]4(O)C(=O)C(C)=C[C@H]4[C@@]1(O3)[C@H](C)[C@H]2OC(C)=O
[1]
  inhibition: Active
[2]
  IC50 at 24 h: > 100 µM
mTORC1 (Mus musculus) [3]
  inhibition: Active
Mus musculus [4]
  Activity: Active
[5]
  inhibition: Active
3T3-L1 [6]
  Activity: Active
[7]
  inhibition: Active
Mus musculus [8]
  Activity: Active
3T3-L1 [9]
  Activity: Active
Mus musculus [10]
  Activity: Active
3T3-L1 [11]
  Activity: Active
[12]
  inhibition: Active
3T3-L1 [13]
  Activity: Active
3T3-L1 [14]
  Activity: inactive
Mus musculus [15]
  inhibition: Active
3T3-L1 [16]
  Activity: Active
mTORC1 (Mus musculus) [17]
  inhibition: Active
[18]
  inhibition: Active
3T3-L1 [19]
  Activity: Active
mTORC1 (Mus musculus) [20]
  inhibition: Active
Mus musculus [21]
  Activity: Active
3T3-L1 [22]
  Activity: Active
[23]
  Kd: 20.4 µM
mTORC1 (Mus musculus) [24]
  inhibition: Active
3T3-L1 [25]
  Activity: Active
Mus musculus [26]
  Activity: Active
3T3-L1 [27]
  Activity: Active
3T3-L1 [28]
  Activity: Active
mTORC1 (Mus musculus) [29]
  inhibition: Active
Mus musculus [30]
  Activity: Active
Mus musculus [31]
  Activity: Active
Mus musculus [32]
  Activity: Active
Mus musculus [33]
  Activity: Active
